Test results from article PMC6274455, “Isolation of α-Amylase Inhibitors from Kadsura longipedunculata Using a High-Speed Counter-Current Chromatography Target Guided by Centrifugal Ultrafiltration with LC-MS” (Molecules, 2016).
Like-named read-outs stand apart in the source and are kept apart here.

Biological target: T1, α-amylase (Sus scrofa, UniProt P00690)
T1 construct: gene AMY2
T1 sequence (P00690 16-511): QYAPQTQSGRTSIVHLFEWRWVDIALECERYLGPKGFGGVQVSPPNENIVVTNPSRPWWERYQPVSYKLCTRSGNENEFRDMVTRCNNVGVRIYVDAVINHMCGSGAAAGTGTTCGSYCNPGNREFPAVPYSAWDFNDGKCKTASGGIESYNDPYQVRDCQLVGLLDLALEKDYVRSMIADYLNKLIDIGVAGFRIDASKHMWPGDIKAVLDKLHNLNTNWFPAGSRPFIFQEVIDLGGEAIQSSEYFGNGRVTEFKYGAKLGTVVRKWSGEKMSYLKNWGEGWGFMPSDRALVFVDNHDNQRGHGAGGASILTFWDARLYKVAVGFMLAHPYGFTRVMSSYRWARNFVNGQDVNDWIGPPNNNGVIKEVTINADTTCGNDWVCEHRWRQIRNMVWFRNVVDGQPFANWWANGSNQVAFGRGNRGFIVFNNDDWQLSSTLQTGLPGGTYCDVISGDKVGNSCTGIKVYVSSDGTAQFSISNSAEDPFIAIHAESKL
Assay: α-amylase inhibition assay of isolated compound; also captured by centrifugal ultrafiltration LC-MS with active but not denatured enzyme
Format: biochemical

SMILES | IC50 | IC50 (read-out: IC50)
C[C@@H]1O[C@@H](Oc2c(-c3ccc(O)c(O)c3)oc3cc(O)cc(O)c3c2=O)[C@H](O)[C@H](O)[C@H]1O [compound 1, quercetin-3-O-rhamnoside] | 28.8 µM | –
O=C(O)c1ccc(O)c(O)c1 [compound 2, protocatechuic acid] | – | 12.5 µM
